In US20180265515A1 (Genentech, Inc., priority 2015, published 2018):

Legend:
[1] = molecular target: T1, isolated recombinant JAK1 kinase domain (Homo sapiens, UniProt P23458); assay: JAK1 enzyme assay (Caliper LabChip, Ki); type: biochemical; conditions: recombinant JAK1 kinase domain, 25 μM ATP
T1 construct: The activity of the isolated recombinant JAK1 and JAK2 kinase domain was measured
Method in brief: (§1)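 Phosphorylation of a fluorescent JAK3-derived dodecapeptide by recombinant human JAK1 or JAK2 catalytic domain is monitored through electrophoretic product/substrate separation. Incubation lasts 30 minutes at 22° C; EDTA quench. Morrison-model Ki values account for ATP competition.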

[2] = tested on: JAK1-dependent STAT6 phosphorylation downstream of IL-13 stimulation in BEAS-2B human bronchial epithelial cells; assay: JAK1 pathway assay in BEAS-2B cells (IL-13 stimulated STAT6 phosphorylation, MSD); type: cell-based; conditions: read-out: P-STAT6 BEAS2B + IL13 IC50
Method in brief: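 BEAS-2B human bronchial epithelial cells, plated the day before in complete growth medium, were preincubated with compound for 1 hr at 37° C (0.2% DMSO final), then stimulated with IL-13 at its EC90 for 15 min. STAT6 phosphorylation in lysates was read by MSD; EC50 was taken as 50% inhibition versus DMSO control.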

[3] = molecular target: T2, isolated recombinant JAK2 kinase domain (Homo sapiens, UniProt O60674); assay: JAK2 enzyme assay (Caliper LabChip, Ki); type: biochemical; conditions: 25 μM ATP
T2 construct: The activity of the isolated recombinant JAK1 and JAK2 kinase domain was measured
Method in brief: as §1

T2 sequence (O60674 849-1124 limits assumed): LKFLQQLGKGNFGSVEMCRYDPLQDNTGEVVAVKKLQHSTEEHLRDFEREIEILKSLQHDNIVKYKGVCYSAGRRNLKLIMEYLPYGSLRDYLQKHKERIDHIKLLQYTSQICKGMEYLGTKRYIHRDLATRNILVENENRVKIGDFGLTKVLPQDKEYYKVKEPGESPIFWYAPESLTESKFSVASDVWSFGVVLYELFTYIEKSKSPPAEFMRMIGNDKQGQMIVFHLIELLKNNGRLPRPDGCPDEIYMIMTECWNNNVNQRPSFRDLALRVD
T1 sequence (P23458 875-1153 limits assumed): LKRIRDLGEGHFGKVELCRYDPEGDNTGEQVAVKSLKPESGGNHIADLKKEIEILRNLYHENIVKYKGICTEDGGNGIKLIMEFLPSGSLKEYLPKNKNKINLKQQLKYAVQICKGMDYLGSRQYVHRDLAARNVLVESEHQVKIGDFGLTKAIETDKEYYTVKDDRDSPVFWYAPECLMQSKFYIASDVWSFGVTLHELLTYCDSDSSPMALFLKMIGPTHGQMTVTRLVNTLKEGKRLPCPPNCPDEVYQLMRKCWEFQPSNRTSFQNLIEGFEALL

Row | Structure (SMILES) | Ki [1] | Ki [3] | IC50 [2]
1 | CC(C)Sc1ccc(OC(F)F)c(-c2nn(C[C@H]3CCCN3)cc2NC(=O)c2cnn3cccnc23)c1 [Example 113, N-[3-[2-(difluoromethoxy)-5-isoproplsulfanyl-phenyl]-1-[[(2R)-pyrrolidin-2-yl]methyl]pyrazol-4-yl]pyrazolo[1,5-a]pyrimidine-3-carboxamide] | 0.64 nM | 0.78 nM | 20 nM
2 | CC(C)Sc1ccc(OC(F)F)c(-c2nn(CC(=O)N3CCN(C)CC3)cc2NC(=O)c2cnn3cccnc23)c1 [Example 117, N-[3-[2-(difluoromethoxy)-5-isopropylsulfanyl-phenyl]-1-[2-(4-methylpiperazin-1-yl)-2-oxo-ethyl]pyrazol-4-yl]pyrazolo[1,5-a]pyrimidine-3-carboxamide] | 0.7 nM | 1.4 nM | 21 nM
3 | CC(C)Sc1ccc(OC(F)F)c(-c2nn(CC(=O)N3CCN(C4CCSCC4)CC3)cc2NC(=O)c2cnn3cccnc23)c1 [Example 119, N-[3-[2-(difluoromethoxy)-5-isopropylsulfanyl-phenyl]-1-[2-oxo-2-(4-tetrahydrothiopyran-4-ylpiperazin-1-yl)ethyl]pyrazol-4-yl]pyrazolo[1,5-a]pyrimidine-3-carboxamide] | 0.47 nM | 0.96 nM | 30 nM
4 | CC(C)Sc1ccc(OC(F)F)c(-c2nn(CC(=O)N3CCC(NCC(C)(C)C#N)CC3)cc2NC(=O)c2cnn3cccnc23)c1 [Example 120, N-[1-[2-[4-[(2-cyano-2-methyl-propyl)amino]-1-piperidyl]-2-oxo-ethyl]-3-[2-(difluoromethoxy)-5-isopropylsulfanyl-phenyl]pyrazol-4-yl]pyrazolo[1,5-a]pyrimidine-3-carboxamide] | 0.4 nM | 1.2 nM | 27 nM
5 | CCN1CCN(C(=O)Cn2cc(NC(=O)c3cnn4cccnc34)c(-c3cc(SC(C)C)ccc3OC(F)F)n2)CC1 [Example 121, N-[3-[2-(difluoromethoxy)-5-isopropylsulfanyl-phenyl]-1-[2-(4-ethylpiperazin-1-yl)-2-oxo-ethyl]pyrazol-4-yl]pyrazolo[1,5-a]pyrimidine-3-carboxamide] | 0.7 nM | 1.3 nM | 31 nM

More lines, in order of falling Ki [1], values ahead:

Row | Ki [1] | Ki [3] | Structure (SMILES) | IC50 [2]
6 | 1.6 nM | 3.9 nM | CC(C)Sc1ccc(OC(F)F)c(-c2nn(CC(=O)N3CCC(CN4CCN(CC(=O)N(C)C)CC4)CC3)cc2NC(=O)c2cnn3cccnc23)c1 [Example 114, N-[3-[2-(difluoromethoxy)-5-isopropylsulfanyl-phenyl]-1-[2-[4-[[4-[2-(dimethylamino)-2-oxo-ethyl]piperazin-1-yl]methyl]-1-piperidyl]-2-oxo-ethyl]pyrazol-4-yl]pyrazolo[1,5-a]pyrimidine-3-carboxamide] | 55 nM
7 | 0.65 nM | 1.6 nM | CC(C)Sc1ccc(OC(F)F)c(-c2nn(CC(=O)N3CCC(NCC4(C#N)CC4)CC3)cc2NC(=O)c2cnn3cccnc23)c1 [Example 115, N-[1-[2-[4-[(1-cyanocyclopropyl)methylamino]-1-piperidyl]-2-oxo-ethyl]-3-[2-(difluoromethoxy)-5-isopropylsulfanyl-phenyl]pyrazol-4-yl]pyrazolo[1,5-a]pyrimidine-3-carboxamide] | 34 nM
8 | 0.6 nM | 1.8 nM | CC(C)Sc1ccc(OC(F)F)c(-c2nn(CC(=O)N3CCC(N4CCN(C)CC4)CC3)cc2NC(=O)c2cnn3cccnc23)c1 [Example 118, N-[3-[2-(difluoromethoxy)-5-isopropylsulfanyl-phenyl]-1-[2-[4-(4-methylpiperazin-1-yl)-1-piperidyl]-2-oxo-ethyl]pyrazol-4-yl]pyrazolo[1,5-a]pyrimidine-3-carboxamide] | 40 nM
9 | 0.51 nM | 1 nM | COCCN1CCN(C(=O)Cn2cc(NC(=O)c3cnn4cccnc34)c(-c3cc(SC(C)C)ccc3OC(F)F)n2)CC1 [Example 116, N-[3-[2-(difluoromethoxy)-5-isopropylsulfanyl-phenyl]-1-[2-[4-(2-methoxyethyl)piperazin-1-yl]-2-oxo-ethyl]pyrazol-4-yl]pyrazolo[1,5-a]pyrimidine-3-carboxamide] | 26 nM
